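These data come from cells grown in 96-well plates and exposed to compound for 48 hours at five concentrations. TGI: concentration producing complete growth inhibition.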 Where a SMILES comes first, the peptide text is derived from it. The star is where a group is joined. Cbz = O=C(OCc1ccccc1)*
Legend:
Assay in all cases: inhibition of tumour cell growth, NCI panel, 48 h
HCC-2998 colon = system: HCC-2998 colon
OVCAR-5 ovarian = system: OVCAR-5 ovarian
MCF7 breast = system: MCF7 breast
HOP-62 NSCLC = system: HOP-62 NSCLC
LOX IMVI melanoma = system: LOX IMVI melanoma
OVCAR-8 ovarian = system: OVCAR-8 ovarian
DU-145 prostate = system: DU-145 prostate
UACC-62 melanoma = system: UACC-62 melanoma
HCT-116 colon = system: HCT-116 colon
MDA-MB-231 breast = system: MDA-MB-231 breast

Compound	TGI (HCC-2998 colon) [µM]	TGI (OVCAR-5 ovarian) [µM]	TGI (MCF7 breast) [µM]	TGI (HOP-62 NSCLC) [µM]	TGI (LOX IMVI melanoma) [µM]	TGI (OVCAR-8 ovarian) [µM]	TGI (DU-145 prostate) [µM]	TGI (UACC-62 melanoma) [µM]	TGI (HCT-116 colon) [µM]	TGI (MDA-MB-231 breast) [µM]
CCOC(=O)CCC(NC(=O)C(CC(=O)OC)NC(=O)OCc1ccccc1)C(=O)NC(CC(=O)OC)C(=O)NC(CCC(=O)OCC)C(=O)NC(CC(=O)OC)C(=O)NC(CCC(=O)OCC)C(=O)NC(CC(=O)OCC)C(=O)OCC (stereo unspecified) (Cbz-D(OMe)E(OEt)D(OMe)E(OEt)D(OMe)E(OEt)D(OEt)-OEt; configuration not given here)	> 100	> 100	> 100	> 100	> 100	> 100	> 100	> 100	> 100	> 100
CC(Nc1cccc(Cl)c1)c1ccncc1 (stereo unspecified)	–	> 100	> 100	> 100	> 100	> 100	> 100	–	> 100	> 100
C[N+](C)(N)Cc1nc(-c2ccc(Cl)cc2)no1	–	> 100	> 100	> 100	> 100	> 100	> 100	> 100	> 100	> 100
COc1ccc(OC)c([N+](=O)[O-])c1-c1nc2sc(Cl)cn2c1/C=N/N=C(N)N	35.6	71.7	46.3	> 100	> 100	43.1	42.8	29.5	> 100	35.7
Cc1cnoc1/N=C1\C=C(Nc2oncc2C)C(=O)c2ccccc21	> 100	> 100	–	> 100	> 100	> 100	–	> 100	> 100	–
CC(C)NC1CCCCC2c3ccccc3C12O (stereo unspecified)	–	–	–	> 100	> 100	> 100	–	> 100	> 100	–
COc1ccc(/C=C2\C(=O)N(C(=O)c3ccc(NC(C)=O)cc3)N=C2C)cc1OC	> 100	> 100	–	> 100	> 100	> 100	–	–	> 100	–
O=[N+]([O-])C(/C(Cl)=C(/Cl)N1CCOCC1)=C1\Nc2ccccc2O1	> 100	> 100	> 100	> 100	–	> 100	> 100	> 100	> 100	> 100
CN1CCN(c2n[nH]c(=O)c3c2nnn3Cc2ccccc2)CC1	> 100	–	> 100	> 100	> 100	> 100	> 100	–	> 100	> 100
CC(=O)Oc1ccc2c(c1)O/C(=C\c1ccc(N(C)C)cc1)C2=O	> 100	–	> 100	> 100	–	> 100	> 100	> 100	> 100	> 100
CCOC(=O)c1ccc(-c2onc(C)c2Br)[nH]1	> 100	> 100	> 100	> 100	–	> 100	> 100	> 100	> 100	> 100
CSC(=Nc1ccccc1)c1c(C)[nH]n(-c2ccccc2)c1=O	> 100	> 100	> 100	–	> 100	> 100	> 100	> 100	> 100	> 100
COc1cc(OC)c(-n2[nH]c(=O)n(C)c2=O)c(OC)c1	> 100	> 100	> 100	–	> 100	> 100	> 100	> 100	> 100	> 100
CCCSc1ccc2[nH]c(N3C(=O)/C(=C/c4ccc(O)c(OC)c4)N=C3c3ccccc3)cc2c1	14.1	44.3	> 100	> 100	> 100	> 100	> 100	19.8	> 100	–
CCOC(=O)N1CCC2(CC1)C[C@](Sc1ccccc1)(C(C)=O)[C@H](C)O2	> 100	> 100	> 100	> 100	> 100	> 100	> 100	> 100	–	> 100
O=C1O/C(=C(\Br)c2ccc([N+](=O)[O-])cc2)c2ccccc21	> 100	> 100	> 100	> 100	> 100	> 100	> 100	> 100	> 100	–
COC(=O)c1sc2nc(Nc3ccccc3)c(=Nc3ccccc3)sc2c1C	> 100	> 100	–	> 100	> 100	> 100	> 100	> 100	> 100	> 100
O=C1CC(Nc2ccccc2)c2c(Cl)sc(Cl)c21 (stereo unspecified)	3.39	6.23	5.21	8.1	2.09	–	3	2.69	2.5	3.42
O=C(CSc1nc2ccccc2c(=O)n1-c1ccccc1)N=Nc1c(O)[nH]c2ccc(Br)cc12	> 100	8.53	> 27.9	7.07	> 31.5	3.99	3.39	25.9	–	3.58
O=C1C(NS(=O)(=O)c2ccccc2)=C(n2ccnc2)C(=O)c2ccccc21	–	> 100	> 100	> 100	> 100	> 100	> 100	> 100	> 100	> 100
O=c1[nH]nc(-c2ccc3ccccc3c2)[nH]1	> 100	> 100	> 100	> 100	> 100	> 100	> 100	> 100	> 100	–
OC1C2CN3CCN(C2)CC1(c1ccccc1)C3 (stereo unspecified)	–	> 100	> 100	> 100	> 100	> 100	> 100	> 100	> 100	> 100
Fc1ccc(F)c(C=NC23CC4CC(CC(C4)C2)C3)c1	> 10	> 10	> 10	> 10	> 10	> 10	> 10	–	> 10	–

— PubChem BioAssay (NCI)
